Experimental data published in US20070254312A1, “Protein Kinase Inhibitors and Methods for Identiying Same” (priority 2004, published 2007).
Like-named read-outs stand apart in the source and are kept apart here. Starred links: 1 amine or outer side, 2 acyl side, 3 side chain; linkers in the order of their positions; H or OH if unused. Non-standard residues stand in square brackets, D forms with d. Residues, ends and D or L forms follow the SMILES beside them. Groups on a side chain read outwards from the residue. *: point of attachment. X2 = N=C(N)NCCC[C@@H](C(=O)*)N(Cc1cccc(O)c1O)Cc1cccc(O)c1O; X1 = N=C(N)NCCC[C@@H](C(=O)[*:2])N(Cc1cccc(O)c1O)[*:1]; Benzoyl(4-NO2) = O=C(c1ccc([N+](=O)[O-])cc1)*; Cysteamide = C(CS[*:3])N[*:1]; Dap = NC[C@H](N)C(=O)O

Legend:
[1] = molecular target: T1, PKCδ (Homo sapiens, UniProt Q05655); test: PKC δ screen, IC50 and Ki determination (Example 2); format: biochemical; set-up: purchased Panvera; conditions: for Fold selectivity (IC50), PKC δ: relative to most potently inhibited isoform (=1): δ for F, ζ for G
T1 sequence (Q05655 whole entry, canonical isoform): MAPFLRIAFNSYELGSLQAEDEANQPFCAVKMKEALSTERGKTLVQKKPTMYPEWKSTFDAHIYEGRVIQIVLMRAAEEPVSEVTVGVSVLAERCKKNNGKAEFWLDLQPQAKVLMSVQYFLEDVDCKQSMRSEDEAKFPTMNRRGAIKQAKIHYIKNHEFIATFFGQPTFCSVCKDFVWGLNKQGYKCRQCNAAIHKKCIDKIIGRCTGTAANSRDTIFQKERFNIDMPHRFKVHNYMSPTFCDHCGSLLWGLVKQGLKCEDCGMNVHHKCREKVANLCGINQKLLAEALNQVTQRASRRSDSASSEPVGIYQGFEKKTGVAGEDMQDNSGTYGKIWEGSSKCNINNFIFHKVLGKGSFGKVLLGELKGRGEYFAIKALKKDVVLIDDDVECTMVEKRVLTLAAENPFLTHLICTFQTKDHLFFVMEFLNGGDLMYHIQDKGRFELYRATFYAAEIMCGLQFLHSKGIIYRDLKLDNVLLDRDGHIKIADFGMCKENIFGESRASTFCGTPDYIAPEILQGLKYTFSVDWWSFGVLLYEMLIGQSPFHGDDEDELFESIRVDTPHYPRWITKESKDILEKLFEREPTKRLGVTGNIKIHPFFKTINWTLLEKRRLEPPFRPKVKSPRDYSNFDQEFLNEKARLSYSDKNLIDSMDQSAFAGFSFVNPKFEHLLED
Protocol: (§1) Protein Kinase C Assays. The peptides […] (for PKC α, β and γ) and […] (for PKC δ, ε, θ, η, τ, and ζ) were used as substrates. […] Total reaction volume in each well was 50 μL. […] Following an additional 5 min incubation at ambient temperature, 75 μL from each reaction well was transferred into each well of a Unifilter (P81 cellulose phosphate paper) assay plate and washed four times with 0.1% phosphoric acid in water. […] Lead compounds from the library were combined into a single 96 well plate and re-assayed as described above in order to identify the best inhibitor. IC50 determinations of resynthesized inhibitor leads for individual PKC isoforms. Assays were performed in triplicate at pH 7.5 and thermostatically maintained at 30° C. using a Boekel constant temperature device. […] The IC50 values for pure compounds as inhibitors were calculated based on the experimental data using GraFit (Erithacus Software Limited). Protein kinase C δ, ε, θ, and η: As described for PKC α, β, and γ except that the assay was performed in the absence of CaCl2. Protein kinase C τ and ζ: As described for PKC α, β, and γ except that the assay was performed in the absence of CaCl2 and DAG. […] Total reaction volume in each well was 50 μL. All the wells were tested in the same plate and each concentration was tested in triplicate. […] Double reciprocal plots were obtained at different concentrations of substrates. Ki values were calculated using Enzyme Kinetics, SigmaPlot (SPSS Inc.).

[2] = molecular target: T2, PKCζ (Homo sapiens, UniProt Q05513); test: PKC ζ screen, IC50 and Ki determination (Example 2); format: biochemical; set-up: purchased Panvera; conditions: for Fold selectivity (IC50), PKC ζ: relative to most potently inhibited isoform (=1): δ for F, ζ for G
T2 sequence (Q05513 1-592): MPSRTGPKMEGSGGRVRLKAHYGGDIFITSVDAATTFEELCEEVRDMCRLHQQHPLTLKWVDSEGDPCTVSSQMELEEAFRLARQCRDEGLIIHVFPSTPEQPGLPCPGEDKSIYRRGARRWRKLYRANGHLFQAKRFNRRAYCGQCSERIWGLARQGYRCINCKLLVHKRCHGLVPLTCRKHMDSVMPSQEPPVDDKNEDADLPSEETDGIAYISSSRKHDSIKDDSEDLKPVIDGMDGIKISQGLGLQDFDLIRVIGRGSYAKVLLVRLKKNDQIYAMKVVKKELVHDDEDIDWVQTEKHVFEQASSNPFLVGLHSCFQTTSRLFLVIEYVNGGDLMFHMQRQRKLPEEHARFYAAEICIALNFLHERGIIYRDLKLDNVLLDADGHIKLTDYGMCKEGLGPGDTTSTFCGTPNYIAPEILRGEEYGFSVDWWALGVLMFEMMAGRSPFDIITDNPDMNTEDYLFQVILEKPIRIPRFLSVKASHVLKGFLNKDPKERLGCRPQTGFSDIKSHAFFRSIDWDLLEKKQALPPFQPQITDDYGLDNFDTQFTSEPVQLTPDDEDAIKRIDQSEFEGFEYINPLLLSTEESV
Protocol: as §1

[3] = molecular target: T3, PKCα (Homo sapiens, UniProt P17252); test: IC50 determination for individual PKC isoforms (Example 2); format: biochemical; conditions: for Fold selectivity (IC50), PKC α: relative to most potently inhibited isoform (=1): δ for F, ζ for G
Protocol: (§2) Protein Kinase C Assays. The peptides […] (for PKC α, β and γ) and […] (for PKC δ, ε, θ, η, τ, and ζ) were used as substrates. IC50 determinations of resynthesized inhibitor leads for individual PKC isoforms. Assays were performed in triplicate at pH 7.5 and thermostatically maintained at 30° C. using a Boekel constant temperature device. […] The IC50 values for pure compounds as inhibitors were calculated based on the experimental data using GraFit (Erithacus Software Limited). Protein kinase C δ, ε, θ, and η: As described for PKC α, β, and γ except that the assay was performed in the absence of CaCl2. Protein kinase C τ and ζ: As described for PKC α, β, and γ except that the assay was performed in the absence of CaCl2 and DAG.

[4] = molecular target: T4, PKC ι (Homo sapiens, UniProt P41743); test: as above; format: biochemical; conditions: for Fold selectivity (IC50), PKC ι: relative to most potently inhibited isoform (=1): δ for F, ζ for G, text prints τ
T4 construct: purchased Panvera
T4 sequence (P41743 1-596): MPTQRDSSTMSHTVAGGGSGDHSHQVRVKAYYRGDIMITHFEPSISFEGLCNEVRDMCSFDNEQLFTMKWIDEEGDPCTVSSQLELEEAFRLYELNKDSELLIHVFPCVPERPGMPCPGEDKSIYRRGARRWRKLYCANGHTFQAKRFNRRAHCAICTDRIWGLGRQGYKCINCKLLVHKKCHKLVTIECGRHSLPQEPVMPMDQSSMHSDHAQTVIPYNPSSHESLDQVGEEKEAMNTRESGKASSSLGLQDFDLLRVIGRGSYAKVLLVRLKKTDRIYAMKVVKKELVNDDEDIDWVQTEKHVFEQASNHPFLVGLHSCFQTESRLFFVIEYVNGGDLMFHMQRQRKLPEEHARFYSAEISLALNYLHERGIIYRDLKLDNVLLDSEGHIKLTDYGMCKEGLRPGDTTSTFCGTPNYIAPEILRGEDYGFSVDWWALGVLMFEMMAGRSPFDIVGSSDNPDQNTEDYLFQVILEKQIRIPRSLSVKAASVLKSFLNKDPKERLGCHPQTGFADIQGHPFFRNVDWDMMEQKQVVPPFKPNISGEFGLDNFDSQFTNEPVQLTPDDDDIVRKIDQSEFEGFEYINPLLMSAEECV
Protocol: as §2

[5] = molecular target: T5, PKC βI (Homo sapiens, UniProt P05771); test: as above; format: biochemical; conditions: for Fold selectivity (IC50), PKC β1: relative to most potently inhibited isoform (=1): δ for F, ζ for G
T5 construct: purchased Panvera
T5 sequence (P05771 whole entry, canonical isoform): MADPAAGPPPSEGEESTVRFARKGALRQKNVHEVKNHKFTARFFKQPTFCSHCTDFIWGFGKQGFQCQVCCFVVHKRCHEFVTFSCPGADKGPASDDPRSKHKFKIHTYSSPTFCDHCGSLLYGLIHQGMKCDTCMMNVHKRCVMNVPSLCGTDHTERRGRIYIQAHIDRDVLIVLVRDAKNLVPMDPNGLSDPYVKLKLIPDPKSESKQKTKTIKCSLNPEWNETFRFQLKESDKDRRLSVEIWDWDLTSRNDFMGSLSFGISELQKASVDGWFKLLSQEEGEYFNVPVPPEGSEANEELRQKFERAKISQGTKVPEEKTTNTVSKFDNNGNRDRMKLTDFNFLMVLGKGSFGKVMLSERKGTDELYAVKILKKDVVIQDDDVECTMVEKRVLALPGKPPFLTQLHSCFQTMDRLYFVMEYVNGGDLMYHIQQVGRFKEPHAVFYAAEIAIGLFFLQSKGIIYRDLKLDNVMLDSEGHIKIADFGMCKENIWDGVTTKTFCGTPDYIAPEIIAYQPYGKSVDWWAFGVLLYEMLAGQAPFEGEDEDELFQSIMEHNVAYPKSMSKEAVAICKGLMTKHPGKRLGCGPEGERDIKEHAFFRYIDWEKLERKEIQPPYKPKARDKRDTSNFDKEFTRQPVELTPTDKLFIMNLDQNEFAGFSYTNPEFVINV
Protocol: as §2

[6] = molecular target: PKCγ (Homo sapiens, UniProt P05129); test: as above; format: biochemical; set-up: purchased Panvera; conditions: for Fold selectivity (IC50), PKC γ: relative to most potently inhibited isoform (=1): δ for F, ζ for G
Protocol: as §2

[7] = molecular target: PKCη (Homo sapiens, UniProt P24723); test: as above; format: biochemical; set-up: purchased Panvera; conditions: for Fold selectivity (IC50), PKC η: relative to most potently inhibited isoform (=1): δ for F, ζ for G
Sequence of PKCη (P24723 whole entry, canonical isoform): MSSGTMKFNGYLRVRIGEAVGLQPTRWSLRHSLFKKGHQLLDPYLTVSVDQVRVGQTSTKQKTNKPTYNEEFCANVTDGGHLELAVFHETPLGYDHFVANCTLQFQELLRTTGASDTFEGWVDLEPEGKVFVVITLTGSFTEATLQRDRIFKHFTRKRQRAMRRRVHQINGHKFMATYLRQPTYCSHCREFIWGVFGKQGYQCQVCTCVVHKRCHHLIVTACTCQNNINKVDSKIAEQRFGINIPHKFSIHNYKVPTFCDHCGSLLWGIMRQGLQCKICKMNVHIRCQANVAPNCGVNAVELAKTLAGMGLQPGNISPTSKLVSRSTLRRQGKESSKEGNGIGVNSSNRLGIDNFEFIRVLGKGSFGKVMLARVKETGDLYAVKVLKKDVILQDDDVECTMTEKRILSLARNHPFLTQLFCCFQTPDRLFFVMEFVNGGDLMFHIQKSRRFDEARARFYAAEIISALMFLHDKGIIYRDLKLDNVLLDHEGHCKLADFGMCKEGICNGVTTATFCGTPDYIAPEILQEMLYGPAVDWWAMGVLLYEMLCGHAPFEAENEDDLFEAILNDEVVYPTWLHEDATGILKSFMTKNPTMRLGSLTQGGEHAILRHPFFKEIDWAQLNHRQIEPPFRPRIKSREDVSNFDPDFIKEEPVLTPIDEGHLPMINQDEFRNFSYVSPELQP
Protocol: as §2

[8] = molecular target: T6, PKCε (Homo sapiens, UniProt Q02156); test: as above; format: biochemical; set-up: purchased Panvera; conditions: for Fold selectivity (IC50), PKC ε: relative to most potently inhibited isoform (=1): δ for F, ζ for G
T6 sequence (Q02156 1-737): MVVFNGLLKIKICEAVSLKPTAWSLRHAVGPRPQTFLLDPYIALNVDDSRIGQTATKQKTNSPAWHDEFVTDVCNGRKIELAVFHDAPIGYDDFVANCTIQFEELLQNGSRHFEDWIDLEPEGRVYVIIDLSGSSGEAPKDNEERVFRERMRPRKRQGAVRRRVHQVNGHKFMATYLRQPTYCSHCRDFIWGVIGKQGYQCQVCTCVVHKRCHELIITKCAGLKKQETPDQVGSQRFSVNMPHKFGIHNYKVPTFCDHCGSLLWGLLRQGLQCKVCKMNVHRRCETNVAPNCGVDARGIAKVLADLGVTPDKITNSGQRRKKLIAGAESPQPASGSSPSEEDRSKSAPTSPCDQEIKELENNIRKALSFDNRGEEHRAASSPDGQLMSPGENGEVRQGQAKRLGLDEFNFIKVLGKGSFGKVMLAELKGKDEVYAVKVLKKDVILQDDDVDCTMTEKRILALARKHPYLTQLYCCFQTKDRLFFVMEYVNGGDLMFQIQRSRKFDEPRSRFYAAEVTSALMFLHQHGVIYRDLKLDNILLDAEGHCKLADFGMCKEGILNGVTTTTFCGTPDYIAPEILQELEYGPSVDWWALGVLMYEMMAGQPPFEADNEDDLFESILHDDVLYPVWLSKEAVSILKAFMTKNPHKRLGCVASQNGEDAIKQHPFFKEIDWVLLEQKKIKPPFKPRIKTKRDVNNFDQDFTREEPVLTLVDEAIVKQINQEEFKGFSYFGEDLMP
Protocol: as §2

[9] = molecular target: PKCθ (Homo sapiens, UniProt Q04759); test: as above; format: biochemical; set-up: purchased Panvera; conditions: for Fold selectivity (IC50), PKC θ: relative to most potently inhibited isoform (=1): δ for F, ζ for G
Sequence of PKCθ (Q04759 whole entry, canonical isoform): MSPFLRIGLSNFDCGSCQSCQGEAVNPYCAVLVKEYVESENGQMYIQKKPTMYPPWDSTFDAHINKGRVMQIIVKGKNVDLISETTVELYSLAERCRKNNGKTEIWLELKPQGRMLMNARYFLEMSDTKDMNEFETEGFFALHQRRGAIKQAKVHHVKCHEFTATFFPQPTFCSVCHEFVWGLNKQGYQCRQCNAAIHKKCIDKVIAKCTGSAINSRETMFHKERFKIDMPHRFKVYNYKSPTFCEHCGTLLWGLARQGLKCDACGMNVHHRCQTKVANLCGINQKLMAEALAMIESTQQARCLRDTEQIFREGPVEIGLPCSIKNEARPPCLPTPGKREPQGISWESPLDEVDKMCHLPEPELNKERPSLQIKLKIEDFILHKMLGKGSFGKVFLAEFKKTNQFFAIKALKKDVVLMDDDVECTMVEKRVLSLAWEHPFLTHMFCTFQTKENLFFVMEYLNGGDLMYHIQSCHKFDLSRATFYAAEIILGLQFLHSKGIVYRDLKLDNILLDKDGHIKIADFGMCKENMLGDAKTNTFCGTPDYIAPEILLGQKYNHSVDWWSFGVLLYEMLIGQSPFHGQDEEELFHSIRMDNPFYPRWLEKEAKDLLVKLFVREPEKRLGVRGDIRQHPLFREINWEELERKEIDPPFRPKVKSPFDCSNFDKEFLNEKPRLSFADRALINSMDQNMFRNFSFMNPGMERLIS
Protocol: as §2

[10] = molecular target: T3, PKCα; conditions: cited from earlier work
[11] = molecular target: T1, PKCδ; set-up: purchased Panvera; conditions: literature values; relative to most potently inhibited isoform (=1); cited from earlier work
[12] = molecular target: PKC β1 (Homo sapiens, UniProt P05771); conditions: literature values; relative to most potently inhibited isoform (=1); cited from earlier work
Sequence of PKC β1 (P05771 whole entry, canonical isoform): as the sequence (P05771 whole entry, canonical isoform) above

[13] = molecular target: T2, PKCζ; set-up: purchased Panvera; conditions: literature values; relative to most potently inhibited isoform (=1); cited from earlier work
[14] = molecular target: T6, PKCε; set-up: purchased Panvera; conditions: literature values; relative to most potently inhibited isoform (=1); cited from earlier work

| IC50 [1] [µM] | Fold selectivity (IC50), PKC δ [1] [fold] | Fold selectivity (IC50), PKC ζ [2] [fold] | Fold selectivity (IC50), PKC α [3] [fold] | Fold selectivity (IC50), PKC ι [4] [fold] | Fold selectivity (IC50), PKC β1 [5] [fold] | Fold selectivity (IC50), PKC γ [6] [fold] | Fold selectivity (IC50), PKC η [7] [fold] | Fold selectivity (IC50), PKC ε [8] [fold] | Fold selectivity (IC50), PKC θ [9] [fold] | Compound | also measured |
| --- | --- | --- | --- | --- | --- | --- | --- | --- | --- | --- | --- |
| 0.018 ± 0.002 | 1 | 200 | 944 | 26 | 172 | 500 | 683 | 489 | 761 | CSCC[C@H](NC(=O)[C@H](Cc1ccccc1)NC(=O)[C@H](CNC(=O)CNC(=O)c1ccc([N+](=O)[O-])cc1)NC(=O)CNC(=O)[C@H](CCC(N)=O)NC(=O)[C@H](CCCNC(=N)N)NC(=O)[C@H](CCCNC(=N)N)NCc1cccc(O)c1O)C(=O)N[C@@H](Cc1ccc(O)cc1)C(=O)N[C@@H](Cc1ccccc1)C(=O)NCCS [Compound F] (H-[X1]RQG[Dap]([Gly-Benzoyl(4-NO2)])FMYF-Cysteamide) | Ki ([1]; versus peptide substrate): 0.008 ± 0.001 µM |
| – | – | – | – | – | – | – | – | – | – | CN(C)CCCn1cc(C2=C(c3c[nH]c4ccccc34)C(=O)NC2=O)c2ccccc21 [Gö6850] | IC50 ([10]; literature value, read-out: IC50 of the most potently inhibited isoform, PKC α (in parentheses)): 0.0084 µM; Fold selectivity (IC50), PKC α ([10]; literature values, relative to most potently inhibited isoform (=1)): 1 fold; Fold selectivity (IC50), PKC δ [11]: 25 fold; Fold selectivity (IC50), PKC β1 [12]: 2 fold; Fold selectivity (IC50), PKC ζ [13]: 690 fold; Fold selectivity (IC50), PKC ε [14]: 16 fold |
| 5.2 ± 0.1 | 693 | 1 | 6333 | 1493 | 730 | 5093 | 2040 | 4600 | 2227 | CSCC[C@H](NC(=O)[C@H](Cc1ccccc1)NC(=O)[C@H](CNC(=O)CNC(=O)c1ccc([N+](=O)[O-])cc1)NC(=O)CNC(=O)[C@H](CCC(N)=O)NC(=O)[C@H](CCCNC(=N)N)NC(=O)[C@H](CCCNC(=N)N)N(Cc1cccc(O)c1O)Cc1cccc(O)c1O)C(=O)N[C@@H](Cc1ccc(O)cc1)C(=O)N[C@@H](Cc1ccccc1)C(=O)NCCS [Compound G] (X2-RQG[Dap]([Gly-Benzoyl(4-NO2)])FMYF-Cysteamide) | – |
| 50 | – | – | – | – | – | – | – | – | – | CSCC[C@H](NC(=O)[C@H](Cc1ccccc1)NC(=O)[C@H](CNC(C)=O)NC(=O)CNC(=O)[C@H](CCC(N)=O)NC(=O)[C@H](CCCNC(=N)N)NC(=O)[C@H](CCCNC(=N)N)NC(C)=O)C(=O)N[C@@H](Cc1ccc(O)cc1)C(=O)N[C@@H](Cc1ccccc1)C(=O)NCCS [Compound A] (Ac-RRQG[Dap](Ac)FMYF-Cysteamide) | – |
| 0.025 ± 0.002 | – | – | – | – | – | – | – | – | – | CSCC[C@H](NC(=O)[C@H](Cc1ccccc1)NC(=O)[C@H](CNC(=O)CNC(=O)c1ccc([N+](=O)[O-])cc1)NC(=O)CNC(=O)[C@H](CCC(N)=O)NC(=O)[C@H](CCCNC(=N)N)NC(=O)[C@@H](N)CCCNC(=N)N)C(=O)N[C@@H](Cc1ccc(O)cc1)C(=O)N[C@@H](Cc1ccccc1)C(=O)NCCS [Compound E] (H-RRQG[Dap]([Gly-Benzoyl(4-NO2)])FMYF-Cysteamide) | Selectivity (Compound E), PKC δ ([1]; IC50 relative to βI (=1)): 3.1; IC50 [2]: 0.022 ± 0.003 µM; Selectivity (Compound E), PKC ζ ([2]; IC50 relative to βI (=1)): 2.8; IC50 [3]: 3.1 ± 0.2 µM; Selectivity (Compound E), PKC α ([3]; IC50 relative to βI (=1)): 387; Selectivity (Compound E), PKC ι ([4]; IC50 relative to βI (=1)): 94; IC50 [5]: 0.008 ± 0.0005 µM; Selectivity (Compound E), PKC βI ([5]; IC50 relative to βI (=1)): 1; Selectivity (Compound E), PKC γ ([6]; IC50 relative to βI (=1)): 550; Selectivity (Compound E), PKC η ([7]; IC50 relative to βI (=1)): 1650; Selectivity (Compound E), PKC ε ([8]; IC50 relative to βI (=1)): 287; Selectivity (Compound E), PKC θ ([9]; IC50 relative to βI (=1)): 1775 |
